Here are results for one compound from PMC5618429, “Kempopeptin C, a Novel Marine-Derived Serine Protease Inhibitor Targeting Invasive Breast Cancer” (Marine Drugs, 2017).

Series [1] concerns the target T1, trypsin from porcine pancreas (Sus scrofa, UniProt P00761).
T1 construct: purchased Sigma T0303; host or cells: porcine pancreas
Nature of the series: Trypsin inhibition assay. The class given is biochemical. To be noted: mean ± SD, n = 3; 30-min preincubation; read-out: IC50 against trypsin. How it is done:
The trypsin inhibition assay was carried out at room temperature by incubating 10 µL of trypsin from porcine pancreas (T0303, Sigma, St. Louis, MO, USA) (100 µM prepared in assay buffer) with 39 µL of assay buffer (50 mM Tris-HCl, 100 mM NaCl, 1 mM CaCl2; pH 7.8) in the presence of 1 µL of different concentrations of inhibitors (2 and 3; half log dilutions prepared in DMSO) or the solvent control. After a 30-min incubation time, 50 µL of the 1.5 mM substrate: Nα-benzoyl-DL-arginine-4-nitroanilide (prepared as 2 mM stock solution in DMF and further diluted to 1.5 mM in assay buffer) were added to each well. The reaction was monitored by measuring the absorbance at 405 nm every 30 s for 30 min using SpectraMax M5 plate reader (Molecular Devices, Sunnyvale, CA, USA).

Series [2] in a line: Cell viability assay (MTT). The class given is cell-based. To be noted: human, MDA-MB-231 breast cancer cells; MDA-MB-231, 48 h, all concentrations tested (32 µM to 320 pM). How it is done: MDA-MB-231 cells were seeded in 96-well plates (10,000 cells/well). After 24 h of incubation, the cells were treated with different concentrations of kempopeptins B or C (2 or 3) or the solvent control (DMSO). Following 48 h of incubation, cell viability was measured using 3-(4,5-dimethylthiazol-2-yl)-2,5-diphenyltetrazolium bromide according to the manufacturer's instructions (Promega, Madison, WI, USA).
Effect of kempopeptins on the viability of MDA-MB-231 cells
Kempopeptin C Kempopeptin B
Figure S1. Effect of kempopeptins B and C (2) and (3) on the viability of MDA -MB-231 breast cancer cells.

The next series relates to MDA-MB-231 cells. Nature of the series: Transwell migration assay. The class given is cell-based. To be noted: Homo sapiens, MDA-MB-231, 48 h. How it is done: The significance of our compounds in inhibiting matriptase and targeting its downstream cellular substrates was evaluated by examining the effect of kempopeptin C (3) on the migration of highly invasive breast cancer cells. The effect on migration was investigated by treating MDA-MB-231 cells with different concentrations of the test compound or solvent control for 48 h. Following 48 h, migrated cells were stained with crystal violet, and the number was counted under the microscope. […] To rule out that proteasome inhibition might be responsible for the migration inhibitory activity, the effect of kempopeptin C (3) on the trypsin-like activity of proteasomes was tested in vitro.
Figure 7 The effect of kempopeptin C (3) on the migration of MDA-MB-231. MDA-MB-231 were incubated for 48 h in the presence of different concentrations (0, 10 or 20 µM) of 3 and the effect was compared to the solvent control. The graph represents the number of migrated cells in each treatment group. The asterisks denote the significance of p ≤ 0.01 relative to the solvent control using the two-tailed unpaired t-test. Data are presented as the mean ± SD, n = 3.
The migration assays were performed using BD falcon cell culture inserts (353097; PET membrane, 8-µm pore size; Fisher Scientific; Waltham, MA, USA) in 24-well plates. […]

Structures are written as SMILES. Bounds are passed on as bounds.

T1 sequence (P00761 9-231): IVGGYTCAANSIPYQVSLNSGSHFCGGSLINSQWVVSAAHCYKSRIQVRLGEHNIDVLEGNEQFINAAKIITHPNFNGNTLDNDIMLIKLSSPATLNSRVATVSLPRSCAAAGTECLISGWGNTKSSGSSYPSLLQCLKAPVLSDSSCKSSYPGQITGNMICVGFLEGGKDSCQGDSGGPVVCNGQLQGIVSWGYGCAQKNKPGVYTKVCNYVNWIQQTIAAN

Regarding `CCCC(=O)NC(C(=O)NC1C(=O)NC(CCCCN)C(=O)NC2CCC(O)N(C2=O)C(C(C)CC)C(=O)N(C)C(Cc2ccc(OC)c(Cl)c2)C(=O)NC(C(C)C)C(=O)OC1C)C(C)C` (stereo not shown) [Kempopeptin C, kempopeptin C], the IC50 (commonly the concentration at which inhibition is half-maximal) in series [1] is 0.19 ± 0.05 µM. Moreover, the viability (as a rule, the share of living cells, or the viability signal relative to a control) at 48 h in series [2] was over 90%. In addition, in the series on MDA-MB-231 cells (MDA-MB-231, 10 µM), the inhibition (usually how much of the control response was suppressed) at 10 µM came to 37%. In addition, in the series with MDA-MB-231 cells (MDA-MB-231, 20 µM), the inhibition at 20 µM was 60%.
